Results from BindingDB's records for doi:10.1016/j.ejmech.2023.115171 (Shenyang Pharmaceutical University, 2023).

Each molecule was assayed against Hypoxia-inducible factor 1-alpha (assay: Inhibition of HIF-1 alpha transcriptional activity in human U-251 cells incubated for 24 hrs under hypoxia condition by luciferse reporter assay).
`COc1ccc(/C=C/C(=O)c2ccc3c(c2O)C=CC(C)(C)O3)cc1OCCN1CCOCC1` gave an IC50 of 10.6 µM.
For `CCN(CC)CCOc1ccc(/C=C/C(=O)c2ccc3c(c2O)C=CC(C)(C)O3)cc1OC`, the IC50 was 6.29 µM.
For `COc1ccc(/C=C/C(=O)c2ccc3c(c2O)C=CC(C)(C)O3)cc1OCCCN1CCC(C)CC1`, the IC50 was 6.23 µM.
Molecule `COc1cc(/C=C/C(=O)c2ccc3c(c2O)C=CC(C)(C)O3)ccc1OCCN1CCCC1` has an IC50 of 6.45 µM.
`COc1cc(/C=C/C(=O)c2ccc3c(c2O)C=CC(C)(C)O3)ccc1OCCCN1CCN(C)CC1` was tested, and the IC50 was 5.76 µM.
Work on `COc1ccc(/C=C/C(=O)c2ccc3c(c2O)C=CC(C)(C)O3)cc1OCCCN1CCCCC1` yielded an IC50 of 5.38 µM.
`COc1cc(/C=C/C(=O)c2ccc3c(c2O)C=CC(C)(C)O3)ccc1OCCN1CCCCC1` gave an IC50 of 5.4 µM.
`COc1cc(/C=C/C(=O)c2ccc3c(c2O)C=CC(C)(C)O3)ccc1OCCCN1CCOCC1` gave an IC50 of 10.5 µM.
Molecule `COc1ccc(/C=C/C(=O)c2ccc3c(c2O)C=CC(C)(C)O3)cc1OCCCN1CCN(C)CC1` has an IC50 of 5.19 µM.
`CCN(CC)CCCOc1cc(/C=C/C(=O)c2ccc3c(c2O)C=CC(C)(C)O3)ccc1OC` was tested, and the IC50 was 5.65 µM.
For `COc1cc(/C=C/C(=O)c2ccc3c(c2O)C=CC(C)(C)O3)ccc1OCCN1CCOCC1`, the IC50 was 8.09 µM.
Work on `COc1ccc(/C=C/C(=O)c2ccc3c(c2O)C=CC(C)(C)O3)cc1OCCCN1CCOCC1` yielded an IC50 of 3.31 µM.
`COc1cc(/C=C/C(=O)c2ccc3c(c2O)C=CC(C)(C)O3)ccc1OCCN1CCC(C)CC1` gave an IC50 of 5.75 µM.
`COc1ccc(/C=C/C(=O)c2ccc3c(c2O)C=CC(C)(C)O3)cc1OCCN1CCCC1` was tested, and the IC50 was 2.38 µM.
In the case of `CCN(CC)CCCOc1ccc(/C=C/C(=O)c2ccc3c(c2O)C=CC(C)(C)O3)cc1OC`, the IC50 is reported as 6.3 µM.
`COc1cc(/C=C/C(=O)c2ccc3c(c2O)C=CC(C)(C)O3)ccc1OCCCN1CCC(C)CC1` was tested, and the IC50 was 3.78 µM.
`COc1ccc(/C=C/C(=O)c2ccc3c(c2O)C=CC(C)(C)O3)cc1OCCN1CCC(C)CC1` gave an IC50 of 3.99 µM.
`COc1cc(/C=C/C(=O)c2ccc3c(c2O)C=CC(C)(C)O3)ccc1OCCN1CCN(C)CC1` was tested, and the IC50 was 3.6 µM.
In the case of `COc1cc(/C=C/C(=O)c2ccc3c(c2O)C=CC(C)(C)O3)ccc1OCCCN1CCCC1`, the IC50 is reported as 2.97 µM.
Molecule `COc1cc(/C=C/C(=O)c2ccc3c(c2O)C=CC(C)(C)O3)ccc1OCCCN1CCCCC1` has an IC50 of 5.55 µM.
With `COc1ccc(/C=C/C(=O)c2ccc3c(c2O)C=CC(C)(C)O3)cc1O` the IC50 was 6.98 µM.
Work on `COc1ccc(/C=C/C(=O)c2ccc3c(c2O)C=CC(C)(C)O3)cc1OCCN1CCN(C)CC1` yielded an IC50 of 3.6 µM.
Work on `COc1ccc(/C=C/C(=O)c2ccc3c(c2O)C=CC(C)(C)O3)cc1OCCCN1CCCC1` yielded an IC50 of 2.38 µM.
